Data set [1] addresses T1, recombinant human Meningioma Expressed Antigen 5 (MGEA5), also referred to as O-GlcNAcase (OGA) (Homo sapiens, UniProt O60502).
T1 construct: Full length OGA enzyme was purchased at OriGene (cat # TP322411); purchased OriGene TP322411
T1 sequence (O60502 1-916): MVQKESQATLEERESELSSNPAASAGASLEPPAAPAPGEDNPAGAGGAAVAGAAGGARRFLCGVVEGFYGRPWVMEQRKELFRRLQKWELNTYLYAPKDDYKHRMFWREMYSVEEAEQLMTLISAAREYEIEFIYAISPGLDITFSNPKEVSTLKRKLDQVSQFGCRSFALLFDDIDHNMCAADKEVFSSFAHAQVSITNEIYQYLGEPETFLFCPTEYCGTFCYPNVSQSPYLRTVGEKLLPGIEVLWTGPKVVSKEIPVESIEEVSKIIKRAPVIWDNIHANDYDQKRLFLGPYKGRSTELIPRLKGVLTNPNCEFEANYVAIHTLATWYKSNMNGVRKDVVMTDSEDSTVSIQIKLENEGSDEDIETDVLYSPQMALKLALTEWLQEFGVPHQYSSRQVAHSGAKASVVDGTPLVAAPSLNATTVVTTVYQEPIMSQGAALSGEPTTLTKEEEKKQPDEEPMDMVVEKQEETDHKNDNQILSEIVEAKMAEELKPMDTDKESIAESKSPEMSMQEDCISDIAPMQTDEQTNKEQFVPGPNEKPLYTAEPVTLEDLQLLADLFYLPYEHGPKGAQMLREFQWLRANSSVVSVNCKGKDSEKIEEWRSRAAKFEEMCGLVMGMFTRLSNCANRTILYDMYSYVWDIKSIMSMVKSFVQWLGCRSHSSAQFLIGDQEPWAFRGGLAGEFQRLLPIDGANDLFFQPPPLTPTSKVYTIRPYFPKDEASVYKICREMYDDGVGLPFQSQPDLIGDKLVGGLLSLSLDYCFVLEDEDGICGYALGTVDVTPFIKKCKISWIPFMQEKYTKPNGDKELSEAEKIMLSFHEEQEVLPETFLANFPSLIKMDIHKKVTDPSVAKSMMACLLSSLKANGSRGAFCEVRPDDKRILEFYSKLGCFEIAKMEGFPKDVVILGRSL
Kind of data set: OGA biochemical assay (inhibition of FM-GlcNAc hydrolysis, fluorescence). To be noted: for Emax: read-out: ENZYMATIC Emax (%); for IC50: read-out: ENZYMATIC hOGA, pIC50 (converted). From the text: The assay is based on the inhibition of the hydrolysis of fluorescein mono-β-D-N-Acetyl-Glucosamine (FM-GlcNAc) (Mariappa et al. 2015, Biochem J 470:255) by the recombinant human Meningioma Expressed Antigen 5 (MGEA5), also referred to as O-GlcNAcase (OGA). The hydrolysis FM-GlcNAc (Marker Gene technologies, cat # M1485) results in the formation of B-D-N-glucosamineacetate and fluorescein. The fluorescence of the latter can be measured at excitation wavelength 485 nm and emission wavelength 538 nm. An increase in enzyme activity results in an increase in fluorescence signal. Full length OGA enzyme was purchased at OriGene (cat # TP322411). The enzyme was stored in 25 mM Tris.HCl, pH 7.3, 100 mM glycine, 10% glycerol at −20° C. Thiamet G and GlcNAcStatin were tested as reference compounds (Yuzwa et al. 2008 Nature Chemical Biology 4:483; Yuzwa et al. 2012 Nature Chemical Biology 8:393). The assay was performed in 200 mM Citrate/phosphate buffer supplemented with 0.005% Tween-20. 35.6 g Na2HPO4 2 H2O (Sigma, # C0759) were dissolved in 1 L water to obtain a 200 mM solution. 19.2 g citric acid (Merck, # 1.06580) was dissolved in 1 L water to obtain a 100 mM solution. pH of the sodium phosphate solution was adjusted with the citric acid solution to 7.2. The buffer to stop the reaction consists of a 500 mM Carbonate buffer, pH 11.0. 734 mg FM-GlcNAc were dissolved in 5.48 mL DMSO to obtain a 250 mM solution and was stored at −20° C. OGA was used at 2 nM concentration and FM-GlcNAc at a 100 uM final concentration. Dilutions were prepared in assay buffer.
50 nl of a compound dissolved in DMSO was dispensed on Black Proxiplate™ 384 Plus Assay plates (Perkin Elmer, #6008269) and 3 μl fl-OGA enzyme mix added subsequently. Plates were pre-incubated for 60 min at room temperature and then 2 μl FM-GlcNAc substrate mix added. […] Plates were briefly centrifuged for 1 min at 1000rpm and incubate at room temperature for 6 h. To stop the reaction 5 μl STOP buffer were added and plates centrifuge again 1 min at 1000 rpm.
Fluorescence was quantified in the Thermo Scientific Fluoroskan Ascent or the PerkinElmer EnVision with excitation wavelength 485 nm and emission wavelength 538 nm.
For analysis a best-fit curve is fitted by a minimum sum of squares method. From this an IC50 value and Hill coefficient was obtained. High control (no inhibitor) and low control (saturating concentrations of standard inhibitor) were used to define the minimum and maximum values.

The next data set addresses T2, OGA (Homo sapiens, UniProt O60502).
T2 construct: HEK293 cells inducible for P301L mutant human Tau (isoform 2N4R) were established at Janssen; endogenous in cells; host or cells: HEK293 cells inducible for P301L mutant human Tau (2N4R)
T2 sequence (O60502 1-916): T1 sequence (O60502 1-916)
The experiment in a line: OGA cellular assay (ICC detection of O-GlcNAcylated proteins in HEK293 cells inducible for P301L mutant human Tau). To be noted: 6 hours incubation; for EC50: read-out: CELLULAR hOGA, pEC50 (converted). It counts as cell-based. How it is done:
HEK293 cells inducible for P301L mutant human Tau (isoform 2N4R) were established at Janssen. Thiamet-G was used for both plate validation (high control) and as reference compound (reference EC50 assay validation). OGA inhibition is evaluated through the immunocytochemical (ICC) detection of O-GlcNAcylated proteins by the use of a monoclonal antibody (CTD110.6; Cell Signaling, #9875) detecting O-GlcNAcylated residues as previously described (Dorfmueller et al. 2010 Chemistry & biology, 17:1250). Inhibition of OGA will result in an increase of O-GlcNAcylated protein levels resulting in an increased signal in the experiment. Cell nuclei are stained with Hoechst to give a cell culture quality control and a rough estimate of immediate compounds toxicity, if any. ICC pictures are imaged with a Perkin Elmer Opera Phenix plate microscope and quantified with the provided software Perkin Elmer Harmony 4.1.
Cells were propagated in DMEM high Glucose (Sigma, #D5796) following standard procedures. 2 days before the cell assay cells are split, counted and seeded in Poly-D-Lysine (PDL) coated 96-wells (Greiner, #655946) plate at a cell density of 12,000 cells per cm^2 (4,000 cells per well) in 100 µl of Assay Medium (Low Glucose medium is used to reduce basal levels of GlcNAcylation) (Park et al. 2014 The Journal of biological chemistry 289:13519). At the day of compound test medium from assay plates was removed and replenished with 90 μl of fresh Assay Medium. 10 μl of compounds at a 10 fold final concentration were added to the wells. Plates were centrifuged shortly before incubation in the cell incubator for 6 hours. DMSO concentration was set to 0.2%. Medium is discarded by applying vacuum. For staining of cells medium was removed and cells washed once with 100 μl D-PBS (Sigma, #D8537). From next step onwards unless other stated assay volume was always 50 μl and incubation was performed without agitation and at room temperature. Cells were fixed in 50 μl of a 4% paraformaldehyde (PFA, Alpha aesar, # 043368) PBS solution for 15 minutes at room temperature. […] Before analysis samples were washed 2 times manually for 5 minutes in ICC base buffer.
Imaging is performed using Perkin Elmer Phenix Opera using a water 20× objective and recording 9 fields per well. Intensity readout at 488 nm is used as a measure of O-GlcNAcylation level of total proteins in wells. To assess potential toxicity of compounds nuclei were counted using the Hoechst staining. IC50-values are calculated using parametric non-linear regression model fitting. As a maximum inhibition Thiamet G at a 200 uM concentration is present on each plate. In addition, a concentration response of Thiamet G is calculated on each plate.

Where a name gives a salt, the structure may show the parent alone.

In turn, `Cc1cc(N2CCC3(CCN(Cc4ccc5sc(C)nc5c4)C3)C2)nc(C)n1` (centres unmarked) (as salt: HCl) [Product 32] came in with a melting point of 214.8 °C.
`Cc1cc(N2CCC3(CCN(C(C)c4ccc5scnc5c4)C3)C2)nc(C)n1.Cl` (centres unmarked) [Product 24] registered a melting point of 218.2 °C. In data set [1], the maximal response (Emax) is 99.3% and the IC50 is 49 nM. Moreover, at OGA, the Emax came to 38% and the EC50 was > 1000 nM.
As to `CC(=O)Nc1ncc(CN2CCC3(C2)CN(c2cc(C)nc(C)c2)C3)s1` [Product 23], the melting point was determined as 212.2 °C. In data set [1], the Emax was 100% and the IC50 is 302 nM.
`CC(=O)Nc1ncc(CN2CC3(CCN(c4cc(C)nc(C)c4)C3)C2)s1` [Product 25] gave a melting point of 214.1 °C. Moreover, in data set [1], the Emax came out at 57.9% and the IC50 is 8710 nM.
As for `COc1cc(N2CCC3(CCN(Cc4cnc(NC(C)=O)s4)C3)C2)ccn1` (centres unmarked) [Product 63], in data set [1], the Emax stood at 102% and the IC50 was 6.92 nM. Besides, on OGA, the maximal response (Emax) worked out at 75.1% and the EC50 is 219 nM.
In the case of `Cc1cc(N2CCC3(CCN(Cc4ccc5nccnc5c4)C3)C2)cc(C)n1` (single isomer, unassigned) [Product 4], in data set [1], the Emax is 98.8% and the IC50 was 224 nM. In addition, on OGA, the Emax amounted to 23.4% and the EC50 is > 10000 nM.
Regarding `Cc1cc(N2CCC3(CCN(Cc4nc5ccccc5[nH]4)C3)C2)nc(C)n1` (centres unmarked) [Product 30], in data set [1], the maximum response (Emax) turned out to be 100% and the IC50 was 324 nM. At OGA, the Emax is 7.7% and the EC50 was > 1000 nM.
Take `CC(=O)Nc1ncc(CN2CCC3(CCN(c4cc(C(F)(F)F)cc(C)n4)C3)C2)s1` (centres unmarked) [Product 62]: in data set [1], the Emax worked out at 100% and the IC50 is 42.7 nM. Besides, at OGA, the Emax was 22.2% and the EC50 is > 1000 nM.
Turning to `COc1cc(C)cc(N2CCC3(CCN(Cc4cnc(NC(C)=O)s4)C3)C2)n1` (centres unmarked) [Product 66], in data set [1], the Emax stood at 99.7% and the IC50 is 69.2 nM. In addition, at OGA, the maximum response (Emax) turned out to be 38.5% and the EC50 is > 1000 nM.
Regarding `CC(=O)Nc1ncc(CN2CCC3(CCN(c4c(C)cncc4C)C3)C2)s1` (centres unmarked) [Product 60], in data set [1], the Emax came out at 100% and the IC50 is 52.5 nM. On OGA, the maximum response (Emax) stood at 88.9% and the EC50 is 148 nM.
`CC(=O)Nc1ncc(CN2CCC3(CCN(c4ncc(C)cc4C)C3)C2)s1` (centres unmarked) [Product 49]: in data set [1], the “ENZYMATIC hOGA; pIC50” value is on record as 8.41 and the Emax worked out at 99.6%. Besides, at OGA, the Emax was determined as 88.8% and the EC50 is 45.7 nM.
In the case of `CC(=O)Nc1ncc(CN2CCC3(CCN(c4cnc(C)c(C)c4)C3)C2)s1` (centres unmarked) [Product 51], in data set [1], the Emax was determined as 100% and the IC50 was 8.51 nM. Besides, at OGA, the Emax is 93% and the EC50 is 123 nM.
Take `Cc1cc(N2CCC3(CCN(Cc4ccc5sc(C)nc5c4)C3)C2)nc(C)n1` (centres unmarked) [Product 32]: in data set [1], the Emax was 102% and the IC50 is 51.3 nM. At OGA, the Emax was 26.3% and the EC50 was > 1000 nM.
In the case of `CC(=O)Nc1ncc(CN2CCC3(CCN(c4ccnc(C(F)(F)F)c4)C3)C2)s1` (centres unmarked) [Product 65], in data set [1], the Emax is 101% and the IC50 is 26.3 nM. Moreover, on OGA, the Emax stood at 56.8% and the EC50 is 724 nM.
In the same order, the values of `Cc1cc(N2CCC3(CCN(C(C)c4ccc5nccnc5c4)C3)C2)cc(C)n1` (single isomer, unassigned) [Product 7] are 98.6%, 72.4 nM, 62.9% and 3800 nM.
For the compound `CNc1cncc(N2CCC3(CCN(Cc4cnc(NC(C)=O)s4)C3)C2)n1` (centres unmarked) [Product 26], in data set [1], the Emax was determined as 101% and the IC50 was 61.7 nM. At OGA, the Emax was determined as 25.1% and the EC50 was > 1000 nM.
For `CC(=O)Nc1ncc(CN2CCC3(CCN(c4cncc(C(F)(F)F)c4)C3)C2)s1` (centres unmarked) [Product 69], in data set [1], the Emax stood at 99.1% and the IC50 was 49 nM. At OGA, the Emax stood at 57.6% and the EC50 is 676 nM.
In the case of `CC(=O)Nc1cnc(N2CCC3(CCN(C(C)c4ccc5c(c4)OCO5)C3)C2)nc1` (centres unmarked) [Product 16], in data set [1], the Emax was determined as 79% and the IC50 is 2690 nM. In addition, on OGA, the Emax came out at 19.5% and the EC50 was > 10000 nM.
Regarding `Cc1cc(N2CCC3(CCN(C(C)c4cc5ccccc5n4C)C3)C2)nc(C)n1.Cl` (centres unmarked) [Product 27], the melting point stood at 166.4 °C. In addition, in data set [1], the “ENZYMATIC hOGA; pIC50” value is listed as 5.58 and the Emax is 79.4%.

The values above are taken from patent publication US20200048267A1, “OGA INHIBITOR COMPOUNDS” (Janssen Pharmaceutica NV, priority 2017, published 2020).
